# From patent publication US12071414B2, “Apelin receptor agonists and methods of use thereof” (Sanford Burnham Prebys Medical Discovery Institute, priority 2015, dated 2024)
# Target: T1, human apelin receptor (APJ, AGTRL-one, APLNR) (Homo sapiens, UniProt P35414)
# T1 construct: host or cells: Chinese hamster ovary cells, stably integrated receptor
# T1 sequence (P35414 1-380): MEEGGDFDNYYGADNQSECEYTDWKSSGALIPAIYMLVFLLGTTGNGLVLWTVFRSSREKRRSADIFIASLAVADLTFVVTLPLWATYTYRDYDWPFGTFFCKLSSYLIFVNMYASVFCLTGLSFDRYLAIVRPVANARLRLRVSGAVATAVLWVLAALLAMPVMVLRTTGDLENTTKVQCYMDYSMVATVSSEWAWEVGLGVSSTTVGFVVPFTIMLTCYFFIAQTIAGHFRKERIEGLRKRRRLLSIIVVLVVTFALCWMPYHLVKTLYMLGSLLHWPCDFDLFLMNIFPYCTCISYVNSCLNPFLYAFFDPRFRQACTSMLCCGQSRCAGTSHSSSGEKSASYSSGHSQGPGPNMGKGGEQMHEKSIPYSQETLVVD
# Test: cell-based cAMP TR-FRET assay of apelin receptor activation
# Settings: CHO cells expressing human APJ, forskolin-stimulated cAMP, 0.5 h incubation, 50% of control (apelin-13, 1 nM) response; read-out: Potency Category (EC50)
# Description: The assays disclosed herein were performed using cell lines from DiscoveX, Inc. Biological activity was determined to the cell—based assay. This assay detects activation of the receptor by reporting on intracellular cyclic adenosine monophosphate (cAMP) level. Chinese hamster ovary cells engineered to express the stably integrated human apelin receptor (APJ, AGTRL—one, APLNR), pleaded into the wells of the microtiter plate. Cells were stimulated with […] to increase intracellular cyclic AMP. Immediately following, compounds were added to the range of final concentrations 0.0-100 μM, in DMSO (not to exceed a final DMSO concentration greater than 1% ν/ν), and allowed to incubate with the cells for 0.5 h. At the end of the incubation, cells were lysed to stop APJ signaling and cAMP was quantified using a commercially available competitive immunoassay kit that applies homogenous time—resolved florescence energy transfer (TR—FRET). The assay is based on the competition between a europium (Eu) chelate—labeled cAMP donor tracer and cellular cAMP for binding sites on a cAMP—specific monoclonal antibody labeled with an acceptor fluorophore. When antibodies are bound to the cAMP tracer light emissions at 320 nm stimulate the energy transfer from the donor to the acceptor, which in turn emits light at 665 nm. In the presence of competitive unlabeled cAMP (derived from the activity of the receptor or forskolin-stimulated production of cAMP), the labelled cAMP tracer is dissociated from the cAMP antibody, resulting in a loss of FRET signal. The amount of light emitted by the FRET is inversely proportional to the cAMP generated by the cell/receptor system. Potency and efficacy at APJ are reported in reference to the canonical APJ receptor agonist apelin—13 when tested at 1 nM. […] Compound efficacy (% response) is reported as a percentage of the maximal apein-13 response at 1 nM (control). Potencies were calculated by fitting a […] logistic curve to concentration response consisting of at least 10 discrete data points spanning effective range of the compounds in the cell-based assay that measures cAMP. […] Category B is 200-500 nM; Category C is 100-200 nM; Category D is 50-100 nM; and Category E is <50 nM.
row,EC50,Compound
1,200 to 500 nM,CCS(=O)(=O)c1ccc(C(Oc2ccc(I)cc2)C(=O)Nc2nc3cc(OC)c(OC)cc3s2)cc1 (centres unmarked)
2,> 500 nM,CCS(=O)(=O)c1ccc(C(CC2CC2)C(=O)Nc2nc3cc(OC)c(OC)cc3s2)cc1 (centres unmarked)
3,< 50 nM,CCS(=O)(=O)c1ccc(C(Oc2ccc(C#N)cc2F)C(=O)Nc2nc3cc(OC)c(OC)cc3s2)cc1 (centres unmarked)
4,> 500 nM,CCS(=O)(=O)c1ccc(C(OC(C)C)C(=O)Nc2nc3cc(OC)c(OC)cc3s2)cc1 (centres unmarked)
5,> 500 nM,CCS(=O)(=O)c1ccc(C(OCCCOC)C(=O)Nc2nc3cc(OC)c(OC)cc3s2)cc1 (centres unmarked)
6,> 500 nM,CCS(=O)(=O)c1ccc(C(Oc2cccc(C#N)c2)C(=O)Nc2nc3cc(OC)c(OC)cc3s2)cc1 (centres unmarked)
7,> 500 nM,CCS(=O)(=O)c1ccc(C(OC2CCCC2)C(=O)Nc2nc3cc(OC)c(OC)cc3s2)cc1 (centres unmarked)
8,> 500 nM,CCS(=O)(=O)c1ccc(C(C(=O)Nc2nc3cc(OC)c(OC)cc3s2)N(C)C)cc1 (centres unmarked)
9,200 to 500 nM,CCS(=O)(=O)c1ccc(C(C(=O)Nc2nc3cc(OC)c(OC)cc3s2)C(C)C)cc1 (centres unmarked)
10,200 to 500 nM,CCc1ccc(OC(C(=O)Nc2nc3cc(OC)c(OC)cc3s2)c2ccc(S(=O)(=O)CC)cc2)cc1 (centres unmarked)
11,> 500 nM,CCS(=O)(=O)c1ccc(C(Nc2cccc(OC)c2)C(=O)Nc2nc3cc(OC)c(OC)cc3s2)cc1 (centres unmarked)
12,50 to 100 nM,CCS(=O)(=O)c1ccc(C(Oc2ccc(C#N)c(C)c2)C(=O)Nc2nc3cc(OC)c(OC)cc3s2)cc1 (centres unmarked)
13,> 500 nM,CCS(=O)(=O)c1ccc(C(C(=O)Nc2nc3cc(OC)c(OC)cc3s2)N2CCOCC2)cc1 (centres unmarked)
14,> 500 nM,CCS(=O)(=O)c1ccc(C(Oc2ccccc2Cl)C(=O)Nc2nc3cc(OC)c(OC)cc3s2)cc1 (centres unmarked)
15,> 500 nM,CCS(=O)(=O)c1ccc(C(Oc2ccccc2C)C(=O)Nc2nc3cc(OC)c(OC)cc3s2)cc1 (centres unmarked)
16,> 500 nM,CCS(=O)(=O)c1ccc(C(OC2CCOCC2)C(=O)Nc2nc3cc(OC)c(OC)cc3s2)cc1 (centres unmarked)
17,> 500 nM,CCS(=O)(=O)c1ccc(C(OCC2CCOCC2)C(=O)Nc2nc3cc(OC)c(OC)cc3s2)cc1 (centres unmarked)
18,< 50 nM,CCS(=O)(=O)c1ccc(C(Oc2ccc(C#N)c(F)c2)C(=O)Nc2nc3cc(OC)c(OC)cc3s2)cc1 (centres unmarked)
19,> 500 nM,CCS(=O)(=O)c1ccc(C(Oc2ccc(F)cc2)C(=O)Nc2nc3cc(OC)c(OC)cc3s2)cc1 (centres unmarked)
20,> 500 nM,CCS(=O)(=O)c1ccc(C(Oc2ccc(OC)cc2)C(=O)Nc2nc3cc(OC)c(OC)cc3s2)cc1 (centres unmarked)
21,> 500 nM,CCS(=O)(=O)c1ccc(C(NCC(C)C)C(=O)Nc2nc3cc(OC)c(OC)cc3s2)cc1 (centres unmarked)
22,< 50 nM,CCS(=O)(=O)c1ccc(C(Oc2ccc(C#N)c(Cl)c2)C(=O)Nc2nc3cc(OC)c(OC)cc3s2)cc1 (centres unmarked)

# Continued, molecule first:
row,Compound,EC50
1,CCS(=O)(=O)c1ccc(C(Oc2ccc(C#N)cc2)C(=O)Nc2nc3ncc(OC)cc3s2)cc1 (centres unmarked),> 500 nM
2,COCCS(=O)(=O)c1ccc(C(Oc2ccc(C#N)cc2)C(=O)Nc2nc3cc(OC)c(OC)cc3s2)cc1 (centres unmarked),< 50 nM
3,COc1cc2nc(NC(=O)C(Oc3ccc(C(=O)O)cc3)c3ccc(C#N)cc3)sc2cc1OC (centres unmarked),> 500 nM
4,CCS(=O)(=O)c1ccc(C(Oc2ccc(C#N)cc2C(F)(F)F)C(=O)Nc2nc3cc(OC)c(OC)cc3s2)cc1 (centres unmarked),100 to 200 nM
5,CCS(=O)(=O)c1ccc(C(Oc2ccc(OC(F)(F)F)cc2)C(=O)Nc2nc3cc(OC)c(OC)cc3s2)cc1 (centres unmarked),200 to 500 nM
6,COc1cc2nc(NC(=O)C(Oc3ccc(C#N)cc3)c3cccc(Br)c3)sc2cc1OC (centres unmarked),> 500 nM
7,COc1cc2nc(NC(=O)C(Oc3ccc(C#N)cc3)c3cccc(S(=O)(=O)C(C)(C)C)c3)sc2cc1OC (centres unmarked),50 to 100 nM
8,CCS(=O)(=O)c1ccc(C(Oc2ccc(C#N)cc2)C(=O)Nc2nc3cc(OC)ccc3s2)cc1 (centres unmarked),> 500 nM
9,CCS(=O)(=O)c1ccc(C(Oc2ccc(C#N)cc2)C(=O)Nc2nc3cc(OC)c(OC)cc3o2)cc1 (centres unmarked),< 50 nM
10,COc1cc2nc(NC(=O)C(Oc3ccc(C#N)cc3)c3ccc(OCCN4CCOCC4)cc3)sc2cc1OC (centres unmarked),200 to 500 nM
11,CCS(=O)(=O)c1ccc(CC(=O)Nc2nc3c(OC)ccc(OC)c3s2)cc1,> 500 nM
12,COc1cc2nc(NC(=O)C(Oc3ccc(OCCN(C)C)cc3)c3ccc(C#N)cc3)sc2cc1OC (centres unmarked),100 to 200 nM
13,COc1cc2nc(NC(=O)C(Oc3ccc(OCCN4CCCCC4)cc3)c3ccc(C#N)cc3)sc2cc1OC (centres unmarked),50 to 100 nM
14,COc1cc2nc(NC(=O)C(Oc3ccc(C#N)cc3)c3ccc(C(=O)NCCN4CCCCC4)cc3)oc2cc1OC (centres unmarked),> 500 nM
15,CCS(=O)(=O)c1ccc(C(Oc2ccc(C#N)cc2)C(=O)Nc2nc3ccc(OCCO)cc3s2)cc1 (centres unmarked),> 500 nM
16,COc1cc2nc(NC(=O)Cc3ccc(S(=O)(=O)C(C)C)cc3)sc2cc1OC,> 500 nM
17,CCS(=O)(=O)c1ccc(C(Oc2ccc(OC)cc2)C(=O)Nc2nc3cc4c(cc3s2)OCO4)cc1 (centres unmarked),> 500 nM
18,COc1cc2nc(NC(=O)C(Oc3ccc(C#N)cc3)c3ccc(C(=O)NCCO)cc3)sc2cc1OC (centres unmarked),50 to 100 nM
19,CCOc1c(OC)ccc2nc(NC(=O)C(Oc3ccc(C#N)cc3)c3ccc(S(=O)(=O)CC)cc3)sc12 (centres unmarked),< 50 nM
20,COc1cc2nc(NC(=O)C(Oc3ccc(C(=O)NCCN4CCCC4)cc3)c3ccc(C#N)cc3)sc2cc1OC (centres unmarked),200 to 500 nM
21,COc1cc2nc(NC(=O)C(Oc3ccc(C(=O)NCCO)cc3)c3ccc(C#N)cc3)sc2cc1OC (centres unmarked),200 to 500 nM
22,CCS(=O)(=O)c1ccc(C(Oc2ccc(OC)cc2)C(=O)Nc2nc3ccc(N4CCN(C)CC4)cc3s2)cc1 (centres unmarked),> 500 nM
23,COCCOc1ccc(C(Oc2ccc(C#N)cc2)C(=O)Nc2nc3cc(OC)c(OC)cc3s2)cc1 (centres unmarked),< 50 nM

row,Compound,EC50
1,COc1cc2nc(NC(=O)C(Oc3ccc(C(=O)NCCN4CCCCC4)cc3)c3ccc(C#N)cc3)sc2cc1OC (centres unmarked),< 50 nM
2,COc1cc2nc(NC(=O)C(Oc3ccc(C(=O)N(C)C)cc3)c3ccc(C#N)cc3)sc2cc1OC (centres unmarked),< 50 nM
3,CCS(=O)(=O)c1ccc(C(Oc2ccc(C(=O)OC)cc2)C(=O)Nc2nc3cc(OC)c(OC)cc3s2)cc1 (centres unmarked),< 50 nM
4,CCS(=O)(=O)c1ccc(C(Oc2ccc(C#N)cc2)C(=O)Nc2nc3nc(OCCOC)c(OC)cc3s2)cc1 (centres unmarked),> 500 nM
5,CCS(=O)(=O)c1ccc(C(Oc2ccc(C#N)cc2)C(=O)Nc2nc3ccc(OC)cc3s2)cc1 (centres unmarked),> 500 nM
6,COCCNC(=O)c1ccc(C(Oc2ccc(C#N)cc2)C(=O)Nc2nc3cc(OC)c(OC)cc3s2)cc1 (centres unmarked),50 to 100 nM
7,CCCc1ccc(OC(C(=O)Nc2nc3cc(OC)c(OC)cc3s2)c2ccc(S(=O)(=O)CC)cc2)cc1 (centres unmarked),200 to 500 nM
8,COc1cc2nc(NC(=O)C(Oc3ccc(C(=O)NCCN(C)C)cc3)c3ccc(C#N)cc3)sc2cc1OC (centres unmarked),50 to 100 nM
9,COc1cc2nc(NC(=O)Cc3ccccc3C(=O)O)sc2cc1OC,> 500 nM
10,COc1cc2nc(NC(=O)C(Oc3ccc(C#N)cc3)c3ccc(C(=O)N(C)C)cc3)oc2cc1OC (centres unmarked),< 50 nM
11,CCS(=O)(=O)c1ccc(C(Oc2ccc(C#N)cc2)C(=O)Nc2cc3ccccc3[nH]2)cc1 (centres unmarked),> 500 nM
12,CCS(=O)(=O)c1ccc(C(Oc2ccc(C#N)cc2)C(=O)Nc2nc3cc(OCc4ccccc4)c(OC)cc3s2)cc1 (centres unmarked),> 500 nM
13,COc1cc2nc(NC(=O)Cc3ccc(S(=O)(=O)N(C)C)cc3)sc2cc1OC,> 500 nM
14,COc1cc2nc(NC(=O)C(Oc3ccc(OCCO)cc3)c3ccc(C#N)cc3)sc2cc1OC (centres unmarked),< 50 nM
15,CCS(=O)(=O)c1ccc(C(Oc2ccc(C#N)cc2)C(=O)Nc2nc3cc(Cl)c(OC)cc3s2)cc1 (centres unmarked),200 to 500 nM
16,CCS(=O)(=O)c1ccc(C(Oc2ccc(C(=O)N(C)C)cc2)C(=O)Nc2nc3cc(OC)c(OC)cc3s2)cc1 (centres unmarked),< 50 nM
17,COc1cc2nc(NC(=O)C(Oc3ccc(C#N)cc3)c3ccc(OC(C)C)cc3)sc2cc1OC (centres unmarked),< 50 nM
18,CCS(=O)(=O)c1cccc(C(Oc2ccc(C#N)cc2)C(=O)Nc2nc3cc(OC)c(OC)cc3s2)c1 (centres unmarked),200 to 500 nM
19,CCS(=O)(=O)c1ccccc1C(Oc1ccc(C#N)cc1)C(=O)Nc1nc2cc(OC)c(OC)cc2s1 (centres unmarked),< 50 nM
20,CCS(=O)(=O)c1ccc(C(Oc2ccc(C#N)cc2)C(=O)Nc2nc3ccc(OCCN4CCN(C)CC4)cc3s2)cc1 (centres unmarked),> 500 nM
21,CCS(=O)(=O)c1ccc(C(OCc2ccc(C#N)cc2)C(=O)Nc2nc3cc(OC)c(OC)cc3s2)cc1 (centres unmarked),> 500 nM
22,COCCOc1ccc(OC(C(=O)Nc2nc3cc(OC)c(OC)cc3s2)c2ccc(C#N)cc2)cc1 (centres unmarked),50 to 100 nM
23,COc1cc2nc(NC(=O)C(Oc3ccc(C#N)cc3)c3ccc(C#N)cc3)sc2cc1OC (centres unmarked),< 50 nM
